Experimental data published in patent US20230021483A1, “[…] […] METHOD AND CLASSIFICATION OF PHARMACEUTICAL COMPONENTS BY USING TRANSCRIPTOMES” (National Institutes of Biomedical Innovation, Health and …, priority 2016, published 2023).
Entries after “also recorded” stand apart in the source; their conditions may differ.

Tests used:
[1] = test system: preferentially upregulated genes in LV, SP, LN; assay: Z-score-based differential gene expression analysis (adjuvant group- or adjuvant-associated genes, 40 module mapping, TargetMine annotation); format: in vivo, C57BL/6 mice
Method in brief: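 Per-sample fold-change values converted to gene-wise z-scores within each organ's data set, then triplicate z-scores summed per adjuvant. Genes with summed score >3 taken as preferentially expressed; gene groups defined by combined per-adjuvant z-score thresholds (z>1 to z>3) specific to each organ.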

[2] = literature reports; cited from earlier work

Structure (SMILES): Nc1nc2c(ncn2[C@@H]2O[C@@H]3COP(=O)(O)O[C@H]4[C@@H](O)[C@H](n5cnc6c(=O)[nH]c(N)nc65)O[C@@H]4COP(=O)(O)O[C@H]3[C@H]2O)c(=O)[nH]1 [cdiGMP, Cyclic diguanylate monophosphate]
- Stat1 1450034_at (Group G1, Modules 20) ([1]; ID, LV, sample x3): 2.07
- Tdrd7 1426716_at (Group G1, Modules 20) ([1]; ID, LV, sample x3): 2.22
- Tor1aip2 1418115_s_at (Group G1, Modules 20) ([1]; ID, LV, sample x3): 2.42
- Tor1aip2 1418116_at (Group G1, Modules 20) ([1]; ID, LV, sample x3): 2.19
- Tor1aip2 1435526_at (Group G1, Modules 20) ([1]; ID, LV, sample x3): 1.54
- Trim12a 1437432_a_at (Group G1, Modules 20) ([1]; ID, LV, sample x3): 1.46
- Uba7 1426970_a_at (Group G1, Modules 20) ([1]; ID, LV, sample x3): 1.41
- interferon induction relative to adjuvants targeting the same receptor ([1]; LN, z-scores and 40 module mapping): strongest interferon inducer; also recorded: induced more interferon responses in vivo than the other sting ligands
- preference, 1417252_at Ptgs2 ([1]; among cdiGMP/cGAMP/DMXAA, LN): cdiGMP
- preference, 1417263_at Ptgs2 ([1]; among cdiGMP/cGAMP/DMXAA, LN): cdiGMP
- preference, 1418424_at Tnfaip6 ([1]; among cdiGMP/cGAMP/DMXAA, LN): cdiGMP
- preference, 1419132_at Tfr2 ([1]; among cdiGMP/cGAMP/DMXAA, LN): cdiGMP
- preference, 1419508_at Ripk1 ([1]; among cdiGMP/cGAMP/DMXAA, LN): cdiGMP
- preference, 1419534_at Olr1 ([1]; among cdiGMP/cGAMP/DMXAA, LN): cdiGMP
- preference, 1419721_at Niacr1 ([1]; among cdiGMP/cGAMP/DMXAA, LN): cdiGMP
- preference, 1421457_a_at Samsn1 ([1]; among cdiGMP/cGAMP/DMXAA, LN): cdiGMP
- preference, 1421473_at Il1a ([1]; among cdiGMP/cGAMP/DMXAA, LN): cdiGMP
- preference, 1421578_at Ccl4 ([1]; among cdiGMP/cGAMP/DMXAA, LN): cdiGMP
- preference, 1421679_a_at Cdkn1a ([1]; among cdiGMP/cGAMP/DMXAA, LN): cdiGMP
- preference, 1422054_a_at 5kil ([1]; among cdiGMP/cGAMP/DMXAA, LN): cdiGMP
- preference, 1422305_at Ifnb1 ([1]; among cdiGMP/cGAMP/DMXAA, LN): cdiGMP
- preference, 1423028_at Ifna2 ([1]; among cdiGMP/cGAMP/DMXAA, LN): cdiGMP
- preference, 1424638_at Cdkn1a ([1]; among cdiGMP/cGAMP/DMXAA, LN): cdiGMP
- preference, 1425687_at Cflar ([1]; among cdiGMP/cGAMP/DMXAA, LN): cdiGMP
- preference, 1425837_a_at Ccrn4l ([1]; among cdiGMP/cGAMP/DMXAA, LN): cdiGMP
- preference, 1427736_a_at Ccrl2 ([1]; among cdiGMP/cGAMP/DMXAA, LN): cdiGMP
- preference, 1428027_at LOC100653389 ([1]; among cdiGMP/cGAMP/DMXAA, LN): cdiGMP
- preference, 1428735_at Cd69 ([1]; among cdiGMP/cGAMP/DMXAA, LN): cdiGMP
- preference, 1433508_at Klf6 ([1]; among cdiGMP/cGAMP/DMXAA, LN): cdiGMP
- preference, 1434350_at Csrnp1 ([1]; among cdiGMP/cGAMP/DMXAA, LN): cdiGMP
- preference, 1436387_at C330006P03Rik///Homer1 ([1]; among cdiGMP/cGAMP/DMXAA, LN): cdiGMP
- preference, 1439349_at Sbno2 ([1]; among cdiGMP/cGAMP/DMXAA, LN): cdiGMP
- preference, 1439680_at Tnfsf10 ([1]; among cdiGMP/cGAMP/DMXAA, LN): cdiGMP
- preference, 1439981_at Tespa1 ([1]; among cdiGMP/cGAMP/DMXAA, LN): cdiGMP
- preference, 1441843_s_at 5230400M03Rik ([1]; among cdiGMP/cGAMP/DMXAA, LN): cdiGMP
- preference, 1442556_at --- ([1]; among cdiGMP/cGAMP/DMXAA, LN): cdiGMP
- preference, 1443414_at C78513 ([1]; among cdiGMP/cGAMP/DMXAA, LN): cdiGMP
- preference, 1444010_at Eif4e ([1]; among cdiGMP/cGAMP/DMXAA, LN): cdiGMP
- preference, 1444598_at --- ([1]; among cdiGMP/cGAMP/DMXAA, LN): cdiGMP
- preference, 1445534_at --- ([1]; among cdiGMP/cGAMP/DMXAA, LN): cdiGMP
- preference, 1446245_at --- ([1]; among cdiGMP/cGAMP/DMXAA, LN): cdiGMP
- preference, 1448325_at Ppp1r15a ([1]; among cdiGMP/cGAMP/DMXAA, LN): cdiGMP
- preference, 1448724_at Cish ([1]; among cdiGMP/cGAMP/DMXAA, LN): cdiGMP
- preference, 1449169_at Has2 ([1]; among cdiGMP/cGAMP/DMXAA, LN): cdiGMP
- preference, 1449311_at Bach1 ([1]; among cdiGMP/cGAMP/DMXAA, LN): cdiGMP
- preference, 1450297_at Il6 ([1]; among cdiGMP/cGAMP/DMXAA, LN): cdiGMP
- preference, 1451340_at Arid5a ([1]; among cdiGMP/cGAMP/DMXAA, LN): cdiGMP
- preference, 1453636_at Pcgf5 ([1]; among cdiGMP/cGAMP/DMXAA, LN): cdiGMP
- preference, 1453851_a_at Gadd45g ([1]; among cdiGMP/cGAMP/DMXAA, LN): cdiGMP
- preference, 1455197_at Rnd1 ([1]; among cdiGMP/cGAMP/DMXAA, LN): cdiGMP
- preference, 1455899_x_at Socs3 ([1]; among cdiGMP/cGAMP/DMXAA, LN): cdiGMP
- preference, 1457404_at Nfkbiz ([1]; among cdiGMP/cGAMP/DMXAA, LN): cdiGMP
- preference, 1457888_at --- ([1]; among cdiGMP/cGAMP/DMXAA, LN): cdiGMP
- preference, 1457944_at --- ([1]; among cdiGMP/cGAMP/DMXAA, LN): cdiGMP
- preference, 1458376_at B930025B16Rik ([1]; among cdiGMP/cGAMP/DMXAA, LN): cdiGMP
- preference, 1458589_at --- ([1]; among cdiGMP/cGAMP/DMXAA, LN): cdiGMP
- preference, 1459144_at --- ([1]; among cdiGMP/cGAMP/DMXAA, LN): cdiGMP
- adjuvant group-associated biological features ([1]; z-score selected genes, TargetMine and IPA upstream cytokine analyses): strongly associated with type I and type II interferon responses
- Th response induced [2]: appears to induce Th1 responses
